Drawing on patent publication US10450316B2, “Certain protein kinase inhibitor” (Chongqing Fochon Pharmaceutical Co., Ltd., priority 2015, dated 2019), this text covers IC50 for 21 molecules.

The structures appear in SMILES notation.

This assay relates to BE(2)-C cell. Put plainly: Cell proliferation assay (MTS) in BE(2)-C cells. Type of assay: cell-based. The conditions noted are these: Homo sapiens, inhibition of BE(2)-C cell proliferation, 48 h. How it is done:
MTS testing kit was purchased from Promega. The DMEM, Fetal bovine serum and Penicillin-Streptomycin were purchased from Gibco. Dimethyl sulfoxide (DMSO) was purchased from Sigma.
To investigate whether a compound is able to inhibit the activity of CDK4/6 in cells, mechanism-based assays using BE(2)-C cell (ATCC® number:CRL-2268) were developed. In the assay, inhibition of CDK4/6 was detected by the inhibition of BE(2)-C cell cells proliferation. BE(2)-C cell cells were cultured in culture flasks to 40-80% confluence in DMEM plus 10% fetal bovine serum. Cells were collected and plated onto 96-well plates at cell density of 3000 cells/well. Plates were incubated overnight at 37° C., with 5% CO2 to adhere. Compounds were added to the plates, the final compound concentrations were 10000, 3333, 1111, […], 123.5, 41.2, 13.7, 4.6 and 1.5 nM. Place plates at 37° C., with 5% CO2 for 48 h. After removing the medium, 20 μl MTS/100 μl medium mixture solution were added to each well and incubate the plates for exactly 2 hours. The reaction was terminated by adding 25 μl 10% SDS per well. Measure absorbance at 490 nm and 650 nm (reference wavelength). IC50 was calculated using GraphPad Prism 5.0.
Select compounds prepared as described above were assayed according to the biological procedures described herein. “++++” stands for IC50 value below about 10 nM. “+++” stands for IC50 value between greater than about 10 nM to about 100 nM. “++” stands for IC50 value between greater than about 100 nM to about […]. “+” stands for IC50 value greater than 1 μM.
In turn, `FC[C@@H]1CCc2nc3c(F)cc(-c4nc(Nc5ccc(CN6CC7(CCNCC7)C6)cn5)ncc4F)cc3n21` [Example 20, (S)-N-(5-((2,7-diazaspiro[3.5]nonan-2-yl)methyl)pyridin-2-yl)-5-fluoro-4-(5-fluoro-1-(fluoro-methyl)-2,3-dihydro-1H-benzo[d]pyrrolo[1,2-a]imidazol-7-yl)pyrimidin-2-amine] had an IC50 above 1000 nM.
Under `CN1CCC2(CC1)CN(Cc1ccc(Nc3ncc(F)c(-c4cc(F)c5nc6n(c5c4)[C@H](CF)CC6)n3)nc1)C2` [Example 21, (S)-5-fluoro-4-(5-fluoro-1-(fluoromethyl)-2,3-dihydro-1H-benzo[d]pyrrolo[1,2-a]imidazol-7-yl)-N-(5-((7-methyl-2,7-diazaspiro[3.5]nonan-2-yl)methyl)pyridin-2-yl)pyrimidin-2-amine] stands above 100 nM.
In the case of `CCN1CCC2(CC1)CN(Cc1ccc(Nc3ncc(F)c(-c4cc(F)c5nc6n(c5c4)[C@H](CF)CC6)n3)nc1)C2` [Example 22, (S)-N-(5-((7-ethyl-2,7-diazaspiro[3.5]nonan-2-yl)methyl)pyridin-2-yl)-5-fluoro-4-(5-fluoro-1-(fluoromethyl)-2,3-dihydro-1H-benzo[d]pyrrolo[1,2-a]imidazol-7-yl)pyrimidin-2-amine] it was above 100 nM; in that of `FC[C@@H]1CCc2nc3c(F)cc(-c4nc(Nc5ccc(CN6CC7(CNC7)C6)cn5)ncc4F)cc3n21` [Example 23, (S)-N-(5-((2,6-diazaspiro[3.3]heptan-2-yl)methyl)pyridin-2-yl)-5-fluoro-4-(5-fluoro-1-(fluoromethyl)-2,3-dihydro-1H-benzo[d]pyrrolo[1,2-a]imidazol-7-yl)pyrimidin-2-amine], above 1000 nM; in that of `CN1CC2(C1)CN(Cc1ccc(Nc3ncc(F)c(-c4cc(F)c5nc6n(c5c4)[C@H](CF)CC6)n3)nc1)C2` [Example 24, (S)-5-fluoro-4-(5-fluoro-1-(fluoromethyl)-2,3-dihydro-1H-benzo[d]pyrrolo[1,2-a]imidazol-7-yl)-N-(5-((6-methyl-2,6-diazaspiro[3.3]heptan-2-yl)methyl)pyridin-2-yl)pyrimidin-2-amine], above 100 nM.
In the case of `CCN1CC2(C1)CN(Cc1ccc(Nc3ncc(F)c(-c4cc(F)c5nc6n(c5c4)[C@H](CF)CC6)n3)nc1)C2` [Example 25, (S)-N-(5-((6-ethyl-2,6-diazaspiro[3.3]heptan-2-yl)methyl)pyridin-2-yl)-5-fluoro-4-(5-fluoro-1-(fluoromethyl)-2,3-dihydro-1H-benzo[d]pyrrolo[1,2-a]imidazol-7-yl)pyrimidin-2-amine] it was 10 to 100 nM; in that of `FC[C@@H]1CCc2nc3c(F)cc(-c4nc(Nc5ccc(CN6CC7CNCC7C6)cn5)ncc4F)cc3n21` (stereo partly drawn) [Example 26, 5-fluoro-4-((S)-5-fluoro-1-(fluoromethyl)-2,3-dihydro-1H-benzo[d]pyrrolo[1,2-a]imidazol-7-yl)-N-(5-((hexahydropyrrolo[3,4-c]pyrrol-2(1H)-yl)methyl)pyridin-2-yl)pyrimidin-2-amine], above 100 nM; in that of `CN1CC2CN(Cc3ccc(Nc4ncc(F)c(-c5cc(F)c6nc7n(c6c5)[C@H](CF)CC7)n4)nc3)CC2C1` (stereo partly drawn) [Example 27, 5-fluoro-4-((S)-5-fluoro-1-(fluoromethyl)-2,3-dihydro-1H-benzo[d]pyrrolo[1,2-a]imidazol-7-yl)-N-(5-((5-methylhexahydropyrrolo[3,4-c]pyrrol-2(1H)-yl)methyl)pyridin-2-yl)pyrimidin-2-amine], 10 to 100 nM.
Regarding `CCN1CC2CN(Cc3ccc(Nc4ncc(F)c(-c5cc(F)c6nc7n(c6c5)[C@H](CF)CC7)n4)nc3)CC2C1` (stereo partly drawn) [Example 28, N-(5-((5-ethylhexahydropyrrolo[3,4-c]pyrrol-2(1H)-yl)methyl)pyridin-2-yl)-5-fluoro-4-((S)-5-fluoro-1-(fluoromethyl)-2,3-dihydro-1H-benzo[d]pyrrolo[1,2-a]imidazol-7-yl)pyrimidin-2-amine], the IC50 fell in the range of 10 to 100 nM.
Regarding `FC[C@@H]1CCc2nc3c(F)cc(-c4nc(Nc5ccc(CN6CCC7(CCNCC7)CC6)cn5)ncc4F)cc3n21` [Example 29, (S)-N-(5-((3,9-diazaspiro[5.5]undecan-3-yl)methyl)pyridin-2-yl)-5-fluoro-4-(5-fluoro-1-(fluoromethyl)-2,3-dihydro-1H-benzo[d]pyrrolo[1,2-a]imidazol-7-yl)pyrimidin-2-amine], the IC50 was above 100 nM.
Under `CN1CCC2(CC1)CCN(Cc1ccc(Nc3ncc(F)c(-c4cc(F)c5nc6n(c5c4)[C@H](CF)CC6)n3)nc1)CC2` [Example 30, (S)-5-fluoro-4-(5-fluoro-1-(fluoromethyl)-2,3-dihydro-1H-benzo[d]pyrrolo[1,2-a]imidazol-7-yl)-N-(5-((9-methyl-3,9-diazaspiro[5.5]undecan-3-yl)methyl)pyridin-2-yl)pyrimidin-2-amine] stands above 100 nM.
In the case of `CCN1CCC2(CC1)CCN(Cc1ccc(Nc3ncc(F)c(-c4cc(F)c5nc6n(c5c4)[C@H](CF)CC6)n3)nc1)CC2` [Example 31, (S)-N-(5-((9-ethyl-3,9-diazaspiro[5.5]undecan-3-yl)methyl)pyridin-2-yl)-5-fluoro-4-(5-fluoro-1-(fluoromethyl)-2,3-dihydro-1H-benzo[d]pyrrolo[1,2-a]imidazol-7-yl)pyrimidin-2-amine] it was above 100 nM; in that of `FC[C@@H]1CCc2nc3c(F)cc(-c4nc(Nc5ccc(CN6C7CCC6CNC7)cn5)ncc4F)cc3n21` [Example 32, N-(5-((3,8-diazabicyclo[3.2.1]octan-8-yl)methyl)pyridin-2-yl)-5-fluoro-4-((S)-5-fluoro-1-(fluoro-methyl)-2,3-dihydro-1H-benzo[d]pyrrolo[1,2-a]imidazol-7-yl)pyrimidin-2-amine], above 100 nM.
Under `CN1CC2CCC(C1)N2Cc1ccc(Nc2ncc(F)c(-c3cc(F)c4nc5n(c4c3)[C@H](CF)CC5)n2)nc1` [Example 33, 5-fluoro-4-((S)-5-fluoro-1-(fluoromethyl)-2,3-dihydro-1H-benzo[d]pyrrolo[1,2-a]imidazol-7-yl)-N-(5-((3-methyl-3,8-diazabicyclo[3.2.1]octan-8-yl)methyl)pyridin-2-yl)pyrimidin-2-amine] stands 10 to 100 nM.
`CCN1CC2CCC(C1)N2Cc1ccc(Nc2ncc(F)c(-c3cc(F)c4nc5n(c4c3)[C@H](CF)CC5)n2)nc1` [Example 34, N-(5-((3-ethyl-3,8-diazabicyclo[3.2.1]octan-8-yl)methyl)pyridin-2-yl)-5-fluoro-4-((S)-5-fluoro-1-(fluoromethyl)-2,3-dihydro-1H-benzo[d]pyrrolo[1,2-a]imidazol-7-yl)pyrimidin-2-amine]: the IC50 lay in the range of 10 to 100 nM.
Under `FC[C@@H]1CCc2nc3c(F)cc(-c4nc(Nc5ccc(CN6CC7CCC(C6)N7)cn5)ncc4F)cc3n21` [Example 35, N-(5-((3,8-diazabicyclo[3.2.1]octan-3-yl)methyl)pyridin-2-yl)-5-fluoro-4-((5)-5-fluoro-1-(fluoro-methyl)-2,3-dihydro-1H-benzo[d]pyrrolo[1,2-a]imidazol-7-yl)pyrimidin-2-amine] stands above 100 nM; under `CN1C2CCC1CN(Cc1ccc(Nc3ncc(F)c(-c4cc(F)c5nc6n(c5c4)[C@H](CF)CC6)n3)nc1)C2` [Example 36, 5-fluoro-4-((5)-5-fluoro-1-(fluoromethyl)-2,3-dihydro-1H-benzo[d]pyrrolo[1,2-a]imidazol-7-yl)-N-(5-((8-methyl-3,8-diazabicyclo[3.2.1]octan-3-yl)methyl)pyridin-2-yl)pyrimidin-2-amine], above 100 nM.
`CCN1C2CCC1CN(Cc1ccc(Nc3ncc(F)c(-c4cc(F)c5nc6n(c5c4)[C@H](CF)CC6)n3)nc1)C2` [Example 37, N-(5-((8-ethyl-3,8-diazabicyclo[3.2.1]octan-3-yl)methyl)pyridin-2-yl)-5-fluoro-4-((S)-5-fluoro-1-(fluoromethyl)-2,3-dihydro-1H-benzo[d]pyrrolo[1,2-a]imidazol-7-yl)pyrimidin-2-amine] registered an IC50 of 10 to 100 nM.
Take `Fc1cnc(Nc2ccc(N3CCNCC3)cn2)nc1-c1cc(F)c2nc3n(c2c1)[C@H](C(F)F)CC3` [Example 38, (S)-4-(1-(difluoromethyl)-5-fluoro-2,3-dihydro-1H-benzo[d]pyrrolo[1,2-a]imidazol-7-yl)-5-fluoro-N-(5-(piperazin-1-yl)pyridin-2-yl)pyrimidin-2-amine]: the IC50 was above 100 nM.
`CCN1CCN(c2ccc(Nc3ncc(F)c(-c4cc(F)c5nc6n(c5c4)[C@H](C(F)F)CC6)n3)nc2)CC1` [Example 40, (S)-4-(1-(difluoromethyl)-5-fluoro-2,3-dihydro-1H-benzo[d]pyrrolo[1,2-a]imidazol-7-yl)-N-(5-(4-ethylpiperazin-1-yl)pyridin-2-yl)-5-fluoropyrimidin-2-amine] had an IC50 above 1000 nM.
For the molecule `Fc1cnc(Nc2ccc(CN3CCN4CCC[C@@H]4C3)cn2)nc1-c1cc(F)c2nc3n(c2c1)[C@H](C(F)F)CC3` [Example 41, 4-((S)-1-(difluoromethyl)-5-fluoro-2,3-dihydro-1H-benzo[d]pyrrolo[1,2-a]imidazol-7-yl)-5-fluoro-N-(5-(((R)-hexahydropyrrolo[1,2-a]pyrazin-2(1H)-yl)methyl)pyridin-2-yl)pyrimidin-2-amine], the IC50 lay in the range of 10 to 100 nM.
